Test results reported in patent US20260159521A1, “RET-LDD PROTEIN INHIBITORS” (Bristol-Myers Squibb Company, priority 2022, published 2026).
pIC50: −log10 of the molar value.

Biological target: RET kinase (Homo sapiens, UniProt P07949)
Test: time resolved FRET-based competition binding assay (RET HTRF)
Method: Cellular RET Binding Assay A time resolved FRET-based competition binding assay was used to assess compound binding to RET kinase (Thermo Fisher, PR7355A). […] Two (2) L of the reaction solution was dispensed into wells of a 1536 plate (Black Low Binding Polystyrene 1536 Plate, Corning, 3724) containing 10 nL of compounds of interest serially diluted in DMSO. The plate was incubated at room temperature for 1 h. FRET was measured using an EnVision plate reader (Excitation: 340 nm, Emission: 520 nm/495 nM). Total signal (0% inhibition) was calculated from wells containing 10 nL DMSO only.

Sequence of RET kinase (P07949 29-1114): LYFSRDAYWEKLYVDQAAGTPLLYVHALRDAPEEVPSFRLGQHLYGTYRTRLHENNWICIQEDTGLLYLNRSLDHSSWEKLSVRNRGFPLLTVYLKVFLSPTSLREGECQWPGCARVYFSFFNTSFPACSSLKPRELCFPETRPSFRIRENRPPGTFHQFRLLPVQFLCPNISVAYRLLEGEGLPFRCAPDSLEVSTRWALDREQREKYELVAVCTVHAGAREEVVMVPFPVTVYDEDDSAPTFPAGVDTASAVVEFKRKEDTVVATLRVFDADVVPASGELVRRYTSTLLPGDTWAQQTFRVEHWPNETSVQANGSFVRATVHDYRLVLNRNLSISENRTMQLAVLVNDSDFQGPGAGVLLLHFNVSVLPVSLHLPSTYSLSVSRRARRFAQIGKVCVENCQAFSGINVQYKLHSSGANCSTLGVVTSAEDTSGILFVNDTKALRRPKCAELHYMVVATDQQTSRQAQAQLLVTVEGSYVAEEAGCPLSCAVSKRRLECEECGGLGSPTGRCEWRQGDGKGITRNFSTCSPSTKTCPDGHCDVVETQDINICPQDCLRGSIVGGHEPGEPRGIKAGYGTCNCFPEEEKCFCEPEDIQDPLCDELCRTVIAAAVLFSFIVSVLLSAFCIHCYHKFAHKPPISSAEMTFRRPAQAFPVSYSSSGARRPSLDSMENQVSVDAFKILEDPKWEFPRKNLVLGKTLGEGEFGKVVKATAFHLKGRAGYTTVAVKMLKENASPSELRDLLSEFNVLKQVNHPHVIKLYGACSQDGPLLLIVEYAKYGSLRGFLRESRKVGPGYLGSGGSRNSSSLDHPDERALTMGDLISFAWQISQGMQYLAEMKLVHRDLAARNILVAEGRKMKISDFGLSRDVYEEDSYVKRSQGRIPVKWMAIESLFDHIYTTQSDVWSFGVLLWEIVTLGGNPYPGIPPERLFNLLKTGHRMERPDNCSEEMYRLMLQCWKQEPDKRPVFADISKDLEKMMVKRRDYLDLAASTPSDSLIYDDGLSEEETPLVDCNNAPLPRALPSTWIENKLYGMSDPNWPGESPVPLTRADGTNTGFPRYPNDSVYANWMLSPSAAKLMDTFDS

COCc1ccc(NC(=O)c2c(-c3ccc(C=O)cc3)c(C(C)C)n3ncnc(N)c23)cc1 [Example 10, 4-amino-6-(4-formylphenyl)-7-isopropyl-N-(4-(methoxymethyl)phenyl)pyrrolo[2,1-f][1,2,4]triazine-5-carboxamide]
pIC50: 7.43
